ChEMBL document CHEMBL3046922, “Antioomycete activity of gamma-oxocrotonate fatty acids against P. infestans” (J Agric Food Chem, 2009)
Activity calls are given as the source filed them. The rule behind the calls is not given here.

Columns and labels:
Phytophthora infestans [1] = assay: Antioomycete activity against Phytophthora infestans isolate 208m2 assessed as inhibition of zoospore germination at 3.7 uM after 24 hr by light microscopy; type: functional, organism-based
Colletotrichum coccodes [2] = assay: Fungicidal activity against Colletotrichum coccodes CBS 369.75 assessed as one-day-old mycelial growth inhibition at 0.01 uM measured every 24 hr by multiwell plate assay; type: functional, organism-based
Phytophthora infestans [3] = assay: Antioomycete activity against Phytophthora infestans isolate 208m2 expressing GFP assessed as one-day-old mycelial growth inhibition at 1 mM by plate reader analysis; type: functional, organism-based
Phytophthora infestans [4] = assay: Antioomycete activity against Phytophthora infestans isolate 208m2 expressing GFP assessed as mature (3-weeks-old) mycelial growth inhibition at 1 to 100 uM applied as a drop solution measured after 24 hr by fluorescence stereomicroscopic analysis; type: functional, organism-based
Phytophthora infestans [5] = assay: Antioomycete activity against Phytophthora infestans isolate 208m2 assessed as inhibition of zoospore germination at 10 nM after 24 hr by light microscopy; type: functional, organism-based
Phytophthora infestans [6] = assay: Antioomycete activity against Phytophthora infestans isolate 208m2 assessed as lysis of zoospores at 100 uM after 24 hr by light microscopy; type: functional, organism-based
Phytophthora infestans [7] = assay: Antioomycete activity against Phytophthora infestans isolate 208m2 assessed as zoospore germtube length at 10 nM to 100 uM after 24 hr by light microscopy; type: functional, organism-based
Colletotrichum coccodes [8] = assay: Fungicidal activity against Colletotrichum coccodes CBS 369.75 assessed as one-day-old mycelial growth inhibition at 100 uM measured every 24 hr by multiwell plate assay; type: functional, organism-based
Phytophthora infestans [9] = assay: Antioomycete activity against Phytophthora infestans isolate 208m2 infected potato plants assessed as decrease in fungal biomass at 10 uM applied on the abaxial leaf surface 2 hr prior to zoospore inoculation measured 3 days after fungal challenge by realtime PCR analysis; type: functional
Solanum tuberosum = assay: Phytotoxicity against Solanum tuberosum cv. Desiree (potato) leaves at 1000 uM; type: organism-based; details: in vivo
Phytophthora infestans [10] = assay: Antioomycete activity against Phytophthora infestans isolate 208m2 infected potato plants assessed as decrease in fungal biomass at 100 uM applied on the abaxial leaf surface 2 hr prior to zoospore inoculation measured 3 days after fungal challenge by realtime PCR analysis; type: functional
Colletotrichum coccodes [11] = assay: Fungicidal activity against Colletotrichum coccodes CBS 369.75 assessed as one-day-old mycelial growth inhibition at 1 uM measured every 24 hr by multiwell plate assay; type: functional; details: CBS 369.75, 24 h, read-out: GI
Phytophthora infestans [12] = assay: Antioomycete activity against Phytophthora infestans isolate 208m2 assessed as inhibition of zoospore germination at 100 nM after 24 hr by light microscopy; type: functional; details: isolate 208m2, 24 h
Phytophthora infestans [13] = assay: Antioomycete activity against Phytophthora infestans isolate 208m2 assessed as zoospore germination at 1 uM after 24 hr by light microscopy; type: functional

`CCCCCCCCCCCCC(=O)/C=C/C(=O)O` [listing 1 of 2 here] was tested, and the inhibition (Phytophthora infestans [1]) was “Active”, the “growth inhibition (GI)” value (Colletotrichum coccodes [2]) was “Active” and the “growth inhibition (GI)” value (Phytophthora infestans [3]) was “Active”. For the same molecule, the “growth inhibition (GI)” value (Phytophthora infestans [4]) was “Active”, the inhibition (Phytophthora infestans [5]) was “Active” and the Activity (Phytophthora infestans [6]) was “Active”. For the same molecule, the Activity (Phytophthora infestans [7]) was “Active” and the “growth inhibition (GI)” value (Colletotrichum coccodes [8]) was “Active”.
For `CCCCCCCCCCCCC(=O)/C=C/C(=O)[O-].[Na+]`, the inhibition at 10 µM (Phytophthora infestans [9]) was 80%, the Activity (Solanum tuberosum) was “Non-toxic” and the inhibition at 100 µM (Phytophthora infestans [10]) was 95%.
`CCCCCCCCCCCCC(=O)/C=C/C(=O)O` [listing 2 of 2 here] gave an inhibition of growth at 1 µM (Colletotrichum coccodes [11]) of 1.5%, an inhibition at 0.1 µM (Phytophthora infestans [12]) of over 50% and an Activity (Phytophthora infestans [13]) of under 10%.
